Assay results: patent publication US9532994B2, “Agents and methods for enhancing bone formation by oxysterols in combination with bone morphogenic proteins” (THE REGENTS OF THE UNIVERSITY OF CALIFORNIA, priority 2003, dated 2017)

Legend:
[1] = tested on: M2-10B4 mouse marrow stromal cell line; assay: Matrix mineralization in M2 cells (von Kossa staining, 45Ca incorporation assay); assay type: cell-based; conditions: 0.5-10 μM, as many as 14 days, data not shown
Method: Cells: M2-10B4 mouse marrow stromal cell line obtained from American Type Culture Collection (ATCC, Rockville, Md., U.S.A.) was derived from bone marrow stromal cells of a (C57BL/6J×C3H/HeJ) F1 mouse, and support human and murine myelopoiesis in long-term cultures (as per ATCC) and have the ability to differentiate into osteoblastic and adipocytic cells. Unless specified, these cells were cultured in RPMI 1640 containing 10% heat-inactivated FBS, and supplemented with 1 mM sodium pyruvate, 100 U/ml penicillin, and 100 […] (all from Irvine Scientific).
(§1) Von Kossa and oil red O staining—Matrix mineralization in cell monolayers was detected by silver nitrate staining as previously described. Oil red O staining for detection of adipocytes was performed as previously described.
^45Ca incorporation assay—Matrix mineralization in cell monolayers was quantified using the ^45Ca incorporation assay as previously described.
M2 cells at confluence were treated in osteogenic medium with control vehicle or 5 μM oxysterols, alone or in combination as indicated. After 14 days, mineralization was identified by a von Kossa staining, which appears black. FIG. 3C is a depiction of von Kossa staining of M2 cells exposed to various conditions.
M2 cells were treated with control vehicle (C) or a combination of 22R and 20S oxysterols at increasing concentrations. After 14 days, matrix mineralization in cultures was quantified using a ^45Ca incorporation assay. […] FIG. 3D is a bar graph depicting the effect of a combination of oxysterols at various doses on calcium incorporation in M2 cells.
Next, a combination of 22R and 20S oxysterols (RS, 2.5 μM each) were added in the presence or absence of SC as indicated. After 3 days, ALP activity was measured as described earlier. […] (B) M2 cells were treated as described in (A) and after 10 days matrix mineralization in cultures was quantified by a ^45Ca incorporation assay as described earlier. Results from a representative of three experiments are shown, reported as the mean±SD of quadruplicate determinations, normalized to protein concentration. (C) M2 cells were pretreated with 20 μM SC for 4 hours, followed by the addition of RS in the presence or absence of SC as described above. After 8 days, total RNA was isolated and analyzed for osteocalcin (Osc) and 18S rRNA expression by Northern blotting as previously described. Data from densitometric analysis of the Northern blot is shown in (D) as the average of duplicate samples, normalized to 18S rRNA. (E) M2 cells at confluence were pretreated for 2 hours with control vehicle (C), or PLA2 inhibitors ACA (25 μM) and MCOCF3 (MC, 20 μM), in osteogenic medium. Next, a combination of 22R and 20S oxysterols (RS, 2.5 μM) was added in the presence or absence of the inhibitors as indicated. After 3 days, ALP activity was measured as previously described. Data from a representative of three experiments are shown, reported as the mean±SD of quadruplicate determinations, normalized to protein concentration (p<0.01 for RS vs. RS+ACA and RS+MC). (F) M2 cells were treated as described in (E). After 10 days, matrix mineralization in cultures was quantified using a ^45Ca incorporation assay as previously described. Results from a representative of three experiments are shown, reported as the mean of quadruplicate determinations±SD, normalized to protein concentration (p<0.01 for RS vs. RS+ACA and RS+MC).
(A) M2 cells at confluence were pretreated for four hours with RPMI containing 1% FBS, followed by treatment with control vehicle or 5 μM 20S oxysterol for 1, 4, or 8 hours. Next total cell extracts were prepared and analyzed for levels of native or phosphorylated ERK (pERK) using specific antibodies as previously described.

M2 cells = assay: Adipogenesis of M2 cells, oil Red O staining and adipocyte count; assay type: cell-based, mouse; conditions: 10 μM Tro, 10 μM oxysterols, alone or in combination, 10 days (FIG. 7)
Method: as §1
Test 1: M2 cells at 90% confluence were treated with vehicle (C), PPAR-γ activator, troglitazone 10 uM (Tro), alone or in combination with 10 μM oxysterols 20S-, 22R-, or 25S-hydroxycholesterol. After 8 days, adipocytes were identified by oil Red O staining and quantified by counting under a phase contrast microscope. FIG. 6A is a bar graph depicting the effect of oxysterols on reducing adipogenesis of MSC.
Test 2: (A) M2 cells at confluence were treated in RPMI containing 10% FBS with control vehicle or 10 μM troglitazone (Tro) in the absence or presence of 10 μM 20S or 22S oxysterols. After 10 days, adipocytes were visualized by oil Red O staining and quantified by light microscopy, shown in (B). Data from a representative of four experiments are shown, reported as the mean SD of quadruplicate determinations (p<0.001 for Tro vs. Tro+20S and Tro+22S). (C) M2 cells were treated at confluence with 10 μM Tro, alone or in combination with 10 μM 20S oxysterol. After 10 days, total RNA was isolated and analyzed for lipoprotein lipase (LPL), adipocyte P2 gene (aP2) or 18S rRNA expression by Northern blotting as described (Ref). Data from densitometric analysis of the Northern blot is shown in (D) as the average of duplicate samples, normalized to 18S rRNA.

Row | Structure (SMILES) | induction of mineralization, individual oxysterols [1] | adipogenesis induced by troglitazone (M2 cells)
1 | CC(C)CC[C@@H](O)[C@@H](C)[C@H]1CC[C@H]2[C@@H]3CC=C4C[C@@H](O)CC[C@]4(C)[C@H]3CC[C@]12C [22R, 22(R)-hydroxycholesterol] | unable to induce | inhibited adipogenesis
2 | CC(C)CC[C@H](O)[C@@H](C)[C@H]1CC[C@H]2[C@@H]3CC=C4C[C@@H](O)CC[C@]4(C)[C@H]3CC[C@]12C [22S, 22(S)-hydroxycholesterol] | unable to induce | inhibited adipogenesis
3 | CC(C)CCC[C@](C)(O)[C@H]1CC[C@H]2[C@@H]3CC=C4C[C@@H](O)CC[C@]4(C)[C@H]3CC[C@@]21C [20S, 20(S)-hydroxycholesterol] | unable to induce | inhibited adipogenesis
